Source: patent publication US20240197704A1, “TREATMENT METHODS AND CO[…]” (Johns Hopkins University, priority 2021, published 2024)
Entries after “also recorded” stand apart in the source; their conditions may differ.

Key:
[1] = system: PV+ interneurons; experiment: AMPA insertion and hyperexcitable phenotype in SynGAP1 mice; format: in vivo; conditions: low dose
[2] = system: patient with pathogenic SYNGAP1 variant; experiment: Case study of low-dose PMP: tolerability, therapy evaluations, sleep, clinical seizures; format: in vivo, human
Procedure: (§1) A […] […] daughter with pathogenic SYNGAP1 variant was trialed on low doses of PMP.
The child has now been on low-dose PMP (<2 mg daily) for over one year. We here discuss the safety profile, changes in the electroencephalographic (EEG) features and clinical features, especially in the developmental profile and sleep pre-and-post PMP. We hypothesize that PMP at doses lower than typically used as an antiseizure medication will be safe in patients with SYNGAP1-DEE and help normalize sleep and behavioral disorders. Almost 50% of SYNGAP1-DEE related epilepsies are refractory to treatment from the very onset and currently very few children are prescribed PMP even for seizure control such that only 1 of 57 patients in a cohort study was documented to have been on it(3).
(§2) Clinical data from physician's clinic notes; genetic testing reports; developmental scores from occupational therapy, physical therapy, speech and language therapy evaluations; and applied behavioral analysis (ABA) reports were reviewed.
(§3) Low-dose PMP at 0.2 mg every night was started when they were 25 months of age. […] The Verbal Behavior Milestones Assessment and Placement Program (VB-MAPP) which is an assessment and skills-tracking system to assess the language, learning and social skills of children with autism or other developmental disabilities was used to evaluate their language and other related social skills. […] Patients' baseline VB-MAPP score […] (prior to starting PMP) was 7/45, which improved to 10/45 at 3 months post PMP and then to 17.5/45 at 10 and 13 months post PMP with 37.2% of developmental goals mastered. A follow-up overnight EEG was done […]. […] Multifocal epileptiform discharges, which were rarely observed in their prior EEGs, were noted over the temporal and central head regions bilaterally and occurred independently. At times the centro-temporal discharges occurred synchronously. These discharges were most prevalent in the N2 sleep, which increased in prevalence in subsequent N2 sleep cycles (FIG. 3). Finally, similar to dysregulated gamma seen during behavioral transition points from wake to NREM sleep in Syngap1^+/− mice, we also observed gamma dysregulation in our patient's pre-PMP EEG, where gamma power was increased during NREM when transitioning from REM and, therefore, presenting a positive slope (FIG. 4).

[3] = system: juvenile HET+/- (Syngap1+/-) mice; experiment: Movement analysis of fast-active events with infrared cameras; format: in vivo; conditions: 5-7 am, dark cycle; HET+/- with low-dose PMP vs WT+/+
Procedure: (§4) 24 h tethered vEEG recording was performed for Het+/− mice and their age- and sex matched WT littermates at P21-P30, followed by telemetric vEEG for 24 h with 6 h SD at P35. Quantitative EEG (qEEG) analysis included the frequency bands: delta (0.5-4.0 Hz), theta(5.5-8.0 Hz), alpha (8.0-13.0 Hz), beta (13.0-30 Hz), and gamma (35-50 Hz). Linear regression of gamma frequency power during transition states from wake to sleep was quantified. Spike frequency over 24 h EEG was scored by a blind reviewer based on previously published parameters. The effect of low-dose PMP (2 mg/kg, IP, BD), an AMPA receptor antagonist, on these potential qEEG biomarkers was investigated. Additionally, movement analysis was performed using infrared cameras to trace fast-active movements between 5 am-7 am. 24 h telemetric vEEG was recorded during marble burying and novel object behavioral tests.

[4] = system: juvenile HET+/- (Syngap1+/-) mice; experiment: 24 h vEEG quantitative EEG (gamma slope, delta power), with or without 6 h sleep deprivation; format: in vivo; conditions: for delta power during NREM: one-way ANOVA
Procedure: as §4

[5] = system: juvenile HET+/- (Syngap1+/-) mice; experiment: Spike frequency over 24 h EEG; format: in vivo; conditions: low-dose PMP
Procedure: as §4

[6] = system: patient with pathogenic SYNGAP1 variant; experiment: EEG, hypnogram and quantitative EEG analysis pre- and post-PMP (case study); format: in vivo, human
Procedure: EEGs used for analysis were recorded with a 10-20 electrode placement system. EEGs were reviewed in Persyst (version 14, Persyst Development Corporation, Prescott, AZ). Long-duration continuous EEGs (≥16 h) that included awake and sleep states were reviewed in non-overlapping 10-second epochs. Each epoch was analyzed for the presence or absence of abnormalities and were given a binary score (1=present, 0=absent). The findings that were scored were abnormal slowing (generalized or focal, FIGS. 3A, B) and epileptiform discharges (generalized or focal, FIGS. 3C,D).
In order to characterize and quantify the clustered nature of spikes, hierarchical clustering analysis was implemented. Hierarchical clustering analysis groups data points based on Euclidean distance and the size of clusters were determined by the clustering coefficient. Average number of spike events in a cluster was computed for a sequence of increasing clustering coefficients, and the progressions for spike subtypes were compared. The rate at which the average spike events increased with respect to clustering coefficient and the size characterized the clustered nature of spike events.
Sleep stages were manually scored in 10 second epochs. FFT was applied to 10 second epochs in Sirenia Sleep software (Pinnacle Tech. Inc, Kansas USA) for further EEG analysis. […] To analyze the presence of similar gamma dysregulation in REM and NREM transition points, linear regression analysis was done on 10 min segment of the REM to NREM transition point

[7] = system: Syngap1+/- mice; conditions: cited from earlier work
[8] = system: patient with pathogenic SYNGAP1 variant; experiment: VB-MAPP assessment for verbal and social skills (case study); format: in vivo, human; design: key to VB-MAPP Communication: Manding / VB-MAPP Communication: Pointing/gesturing to preferred items / VB-MAPP Communication: Listener Responding-reinforcing/preferred items / VB-MAPP Communication: PECS-Phase 1 / VB-MAPP Cognitive: Motor imitation / VB-MAPP Cognitive: Receptive commands / VB-MAPP Social: Responds to name / VB-MAPP Social: Parallel play / VB-MAPP Social: Independent play / VB-MAPP Health: Feeding / VB-MAPP Behavior: Functional Communication training / VB-MAPP Behavior: Waiting: ↑ = improvement in skill from prior assessment; ↓ = worsening in skill from prior assessment
Procedure: as §1, §2, §3

[9] = 6 months post-initiation, once daily low-dose PMP at bedtime
[10] = 3 months post PMP (dose 0.2 mg)
[11] = 10 months post PMP (dose 0.3 mg)

N#Cc1ccccc1-c1cc(-c2ccccn2)cn(-c2ccccc2)c1=O [PMP, 3-(2-cyanophenyl)-5-(2-pyridyl)-1-phenyl-1,2-dihydropyridin-2-one]
excessive AMPA insertion and hyperexcitable phenotype [1]: rescue the excessive AMPA insertion and hyperexcitable phenotype | tolerability ([2]; 1.5 mg daily at bed-time): tolerating it well | fine and visual motor skills (occupational therapy evaluation) [2, 9]: improvement in their fine and visual motor skills | independent walking [2, 9]: started walking independently | tone and strength (physical therapy evaluation) [2, 9]: significant improvements in their tone and strength | control of clinical seizures ([2]; low dose PMP): not helpful in controlling their clinical seizures | motor, cognition, communication, social and behavior domains ([2]; low doses 0.2 mg->0.3 mg per day at bedtime): significant improvements | tolerability / side effects ([2]; low-dose PMP 0.2 mg, then 0.3 mg every night, started): tolerated the PMP well without any side effects; also recorded: without significant side-effects | sleep quality (parent report) ([2]; once daily low-dose PMP at bedtime): improvement in sleep quality with fewer night time awakenings | level of fast active events (hyperactivity) [3]: this relation was lost after the low-dose PMP administration | delta power during NREM ([4]; 24 h baseline vEEG, all groups incl. HET+/- PMP): did not show notable statistical significance across all groups | delta power during NREM ([4]; 24 h vEEG with 6 h SD, all groups): did not show notable statistical significance across all groups | gamma slope at behavioral transition points, wake to sleep ([4]; low-dose PMP 2 mg/kg, IP, BD, juvenile HET+/-, paired t-test p<0.05): significantly reduced the gamma slope and rescued the gamma homeostasis | gamma slope at sleep transition points after 6 h SD ([4]; low-dose PMP 2 mg/kg, IP, sleep deprived HET+/-, paired t-test p<0.05): rescued gamma homeostasis by decreasing the most dominant slope | cortical spike frequency [5]: reduced spike frequency in high spiking HET^+/− mice however group data was not statistically significant | prevalence of occipital intermittent rhythmic delta activity (OIRDA) ([6]; follow-up overnight EEG, post-PMP vs pre-PMP, wake and REM sleep): overall decrease in the prevalence of the OIRDA; also recorded: significantly reduced post-PMP | effect on epileptiform discharges ([6]; low-dose PMP): did not have any significant effect on the epileptiform discharges | prevalence of focal epileptiform discharges ([6]; post PMP vs pre PMP EEG): more prevalent post PMP compared to pre PMP | gamma dysregulation: gamma slope at REM to NREM transitions ([6]; post-PMP EEG vs pre-PMP EEG, same patient): significantly alleviated; also recorded: significantly rescued | gamma dysregulation ([7]; PMP-treated Syngap1+/- mice): significant rescue of the gamma dysregulation | interictal spikes suppression ([7]; epileptic mice, low dose): weaker effect on interictal spikes suppression | VB-MAPP Behavior: Functional Communication training [8, 10]: ↑ | VB-MAPP Behavior: Waiting [8, 10]: ↑ | VB-MAPP Cognitive: Motor imitation [8, 10]: ↑ | VB-MAPP Cognitive: Receptive commands [8, 10]: ↑ | VB-MAPP Communication: Listener Responding-reinforcing/preferred items [8, 10]: ↑ | VB-MAPP Communication: Manding [8, 10]: ↑ | VB-MAPP Communication: PECS-Phase 1 [8, 10]: ↑ | VB-MAPP Communication: Pointing/gesturing to preferred items [8, 10]: ↑ | VB-MAPP Health: Feeding [8, 10]: ↑ | VB-MAPP Social: Independent play [8, 10]: ↑ | VB-MAPP Social: Parallel play [8, 10]: ↑ | VB-MAPP Social: Responds to name [8, 10]: ↑ | VB-MAPP score ([8]; 3 months post PMP, baseline prior to PMP 7/45): 10/45 | developmental goals mastered ([8]; 10 and 13 months post PMP): 37.2% | VB-MAPP Behavior: Functional Communication training [8, 11]: ↑ | VB-MAPP Behavior: Waiting [8, 11]: ↑ | VB-MAPP Cognitive: Motor imitation [8, 11]: ↑ | VB-MAPP Cognitive: Receptive commands [8, 11]: ↑ | VB-MAPP Communication: Listener Responding-reinforcing/preferred items [8, 11]: ↓ | VB-MAPP Communication: Manding [8, 11]: ↓ | VB-MAPP Communication: PECS-Phase 1 [8, 11]: ↑ | VB-MAPP Communication: Pointing/gesturing to preferred items [8, 11]: ↑ | VB-MAPP Health: Feeding [8, 11]: ↑ | VB-MAPP Social: Independent play [8, 11]: ↑ | VB-MAPP Social: Parallel play [8, 11]: ↑ | VB-MAPP Social: Responds to name [8, 11]: ↑
